From ChEMBL document CHEMBL4308849, “Antimalarial Lead-Optimization Studies on a 2,6-Imidazopyridine Series within a Constrained Chemical Space To Circumvent Atypical Dose-Response Curves against Multidrug Resistant Parasite Strains” (J Med Chem, 2018)

Assays:
[1] = Metabolic stability in human liver microsomes assessed as parent compound remaining at 0.1 uM after 60 mins in presence of NADPH by LC-MS/MS analysis; type: ADME, Microsome; settings: read-out: Stability
[2] = Metabolic stability in mouse liver microsomes assessed as parent compound remaining at 0.1 uM after 60 mins in presence of NADPH by LC-MS/MS analysis; type: ADME, Microsome; settings: read-out: Stability
[3] = Metabolic stability in rat liver microsomes assessed as parent compound remaining at 0.1 uM after 60 mins in presence of NADPH by LC-MS/MS analysis; type: ADME, Microsome; settings: read-out: Stability
[4] = Oral bioavailability in Balb/c mouse at 20 mg/kg by LC-MS/MS analysis; type: ADME, organism-based; settings: in vivo
[5] = AUC (0 to infinity) in Balb/c mouse at 2 mg/kg, iv by LC-MS/MS analysis; type: ADME, organism-based; set-up: dose 2 mg/kg, route intravenous, time infinity; settings: in vivo
[6] = Cmax in Balb/c mouse at 20 mg/kg, po by LC-MS/MS analysis; type: ADME, organism-based; set-up: dose 20 mg/kg, route oral; settings: in vivo
[7] = Half life in Balb/c mouse at 2 mg/kg, iv by LC-MS/MS analysis; type: ADME, organism-based; settings: in vivo
[8] = AUC (0 to infinity) in Balb/c mouse at 20 mg/kg, po by LC-MS/MS analysis; type: ADME, organism-based; set-up: dose 20 mg/kg, route oral, time infinity; settings: in vivo
[9] = Volume of distribution in Balb/c mouse at 2 mg/kg, iv by LC-MS/MS analysis; type: ADME, organism-based; settings: in vivo
[10] = Tmax in Balb/c mouse at 20 mg/kg, po by LC-MS/MS analysis; type: ADME, organism-based; settings: in vivo
[11] = Blood clearance in Balb/c mouse at 2 mg/kg, iv by LC-MS/MS analysis; type: ADME, organism-based; settings: whole blood

Row | remaining at 1 h, 0.1 µM [1] [%] | remaining at 1 h, 0.1 µM [2] [%] | remaining at 1 h, 0.1 µM [3] [%] | SMILES | other results
1 | 7 | 14 | 9 | Fc1ccc(-c2nc3cnc(Nc4ccc(N5CCN(CC6CC6)CC5)cn4)cc3[nH]2)cc1F | 
2 | 93 | 68 | 55 | FC(F)(F)c1ccc(-c2nc3cnc(Nc4ccc(N5CCN(CC6CC6)CC5)cn4)cc3[nH]2)cn1 | 
3 | 92 | 55 | 59 | Fc1ccc(Nc2cc3[nH]c(Nc4ccc(N5CCNCC5)cn4)nc3cn2)cc1C(F)(F)F | 
4 | 92 | 75 | 73 | Fc1ccc(-c2nc3cnc(Nc4ccc(N5CCNCC5)cn4)cc3[nH]2)cc1F | 
5 | 86 | 54 | 52 | FC1(F)CC(c2nc3cnc(Nc4ccc(N5CCN(CC6CC6)CC5)cn4)cc3[nH]2)C1 | 
6 | 77 | 93 | 53 | O=C(c1ccnc(Nc2cc3[nH]c(-c4ccc(F)c(C(F)(F)F)c4)nc3cn2)c1)N1CCN(C2CC2)CC1 | 
7 | 65 | 26 | 48 | CC(C)(C)N1CCN(C(=O)c2ccnc(Nc3cc4[nH]c(-c5cccc(C(F)(F)F)c5)nc4cn3)c2)CC1 | bioavailability [4]: 2%; AUC(0-inf) [5]: 0.933 µM·h; Cmax [6]: 40 nM; half-life [7]: 19 h; AUC(0-inf) [8]: 0.2 µM·h; Vd [9]: 117 L/kg; Tmax [10]: 0.5 h; clearance [11]: 68 mL/min/kg
8 | 59 | 61 | 64 | CC(C)CN1CCN(c2ccc(Nc3cc4[nH]c(C5CCC(F)(F)CC5)nc4cn3)nc2)CC1 | 
9 | 98 | 87 | 97 | Fc1ccc(-c2nc3cnc(Nc4ccc(C5CCNCC5)cn4)cc3[nH]2)cc1F | 
10 | 98 | 78 | 73 | Fc1ccc(Nc2cc3[nH]c(Nc4cc(N5CCNCC5)ccn4)nc3cn2)cc1C(F)(F)F | 
11 | 52 | 41 | 36 | Fc1ccc(-c2nc3cnc(Nc4ccc(N5CCN(CC6CC6)CC5)cn4)cc3[nH]2)cc1C(F)(F)F | 
